Measurements: patent US10251395B2, “Substituted furano-/thienocycloalkylamino-2-pyrimidine derivatives and use thereof for controlling undesired plant growth” (Bayer CropScience Aktiengesellschaft, priority 2015, dated 2019)

Legend:
Assay type in all cases: in vivo
Veronica persica [1] = assay: Post-emergence herbicidal effect; settings: 320 g/ha, assessed visually after about 3 weeks vs untreated controls
Excerpt: (§1) • ABUTH: Abutilon theophrasti ALOMY: Alopecurus myosuroides • AMARE: Amaranthus retroflexus AVEFA: Avena fatua • CYPES: Cyperus esculentus ECHCG: Echinochloa crus-galli • LOLMU: Lolium multiflorum MATIN: Matricaria inodora • PHBPU: Ipomoea purpurea POLCO: Polygonum convolvulus • SETVI: Setaria viridis STEME: Stellaria media • VERPE: Veronica persica VIOTR: Viola tricolor Seeds of monocotyledonous and dicotyledonous weed and crop plants are laid out in sandy loam in wood-fiber pots, covered with soil and cultivated in a greenhouse under good growth conditions. 2 to 3 weeks after sowing, the test plants are treated at the one-leaf stage. The compounds of the invention, formulated in the form of wettable powders (WP) or as emulsion concentrates (EC), are then sprayed onto the green parts of the plants as aqueous suspension or emulsion at a water application rate equating to 600 to 800 L/ha with addition of 0.2% wetting agent. After the test plants have been left to stand in the greenhouse under optimal growth conditions for about 3 weeks, the action of the preparations is assessed visually in comparison to untreated controls (herbicidal action in percent (%): 100% activity=the plants have died, 0% activity=like control plants).

Viola tricolor [2] = assay: Post-emergence herbicidal effect; settings: assessed visually after about 3 weeks vs untreated controls
Excerpt: as §1

Abutilon theophrasti = assay: Post-emergence herbicidal effect; settings: assessed visually after about 3 weeks vs untreated controls
Excerpt: as §1

Setaria viridis [3] = assay: Post-emergence herbicidal effect; settings: assessed visually after about 3 weeks vs untreated controls
Excerpt: as §1

Veronica persica [4] = assay: Pre-emergence herbicidal effect; settings: scored visually after 3 weeks
Excerpt: (§2) Seeds of monocotyledonous and dicotyledonous weed plants and crop plants are laid out in wood-fiber pots in sandy loam and covered with soil. The compounds of the invention, formulated in the form of wettable powders (WP) or as emulsion concentrates (EC), are then applied to the surface of the covering soil as aqueous suspension or emulsion at a water application rate equating to 600 to 800 L/ha with addition of 0.2% wetting agent.
(§3) After the treatment, the pots are placed in a greenhouse and kept under good growth conditions for the trial plants. The damage to the test plants is scored visually after a test period of 3 weeks by comparison with untreated controls (herbicidal activity in percent (%): 100% activity=the plants have died, 0% activity=like control plants).
(§4) • ABUTH: Abutilon theophrasti ALOMY: Alopecurus myosuroides • AMARE: Amaranthus retroflexus AVEFA: Avena fatua • CYPES: Cyperus esculentus ECHCG: Echinochloa crus-galli • LOLMU: Lolium multiflorum MATIN: Matricaria inodora • PHBPU: Ipomoea purpurea POLCO: Polygonum convolvulus • SETVI: Setaria viridis STEME: Stellaria media • VERPE: Veronica persica VIOTR: Viola tricolor

Viola tricolor [5] = assay: Pre-emergence herbicidal effect; settings: scored visually after 3 weeks
Excerpt: as §2, §3, §4

Polygonum convolvulus = assay: Pre-emergence herbicidal effect; settings: scored visually after 3 weeks
Excerpt: as §2, §3, §4

Lolium multiflorum = assay: Pre-emergence herbicidal effect; settings: Dosage 320 g/ha, scored visually after 3 weeks
Excerpt: as §2, §3, §4

Stellaria media [6] = assay: Pre-emergence herbicidal effect; settings: scored visually after 3 weeks
Excerpt: as §2, §3, §4

Matricaria inodora [7] = assay: Pre-emergence herbicidal effect; settings: scored visually after 3 weeks
Excerpt: as §2, §3, §4

Setaria viridis [8] = assay: Pre-emergence herbicidal effect; settings: scored visually after 3 weeks
Excerpt: as §2, §3, §4

Amaranthus retroflexus [9] = assay: Pre-emergence herbicidal effect; settings: scored visually after 3 weeks
Excerpt: as §2, §3, §4

Matricaria inodora [10] = assay: Post-emergence herbicidal effect; settings: 320 g/ha, assessed visually after about 3 weeks vs untreated controls
Excerpt: as §1

Amaranthus retroflexus [11] = assay: Post-emergence herbicidal effect; settings: assessed visually after about 3 weeks vs untreated controls
Excerpt: as §1

Ipomoea purpurea = assay: Post-emergence herbicidal effect; settings: assessed visually after about 3 weeks vs untreated controls
Excerpt: as §1

Stellaria media [12] = assay: Post-emergence herbicidal effect; settings: assessed visually after about 3 weeks vs untreated controls
Excerpt: as §1

Echinochloa crus-galli [13] = assay: Pre-emergence herbicidal effect; settings: Dosage 320 g/ha, scored visually after 3 weeks
Excerpt: as §2, §3, §4

Alopecurus myosuroides = assay: Pre-emergence herbicidal effect; settings: scored visually after 3 weeks
Excerpt: as §2, §3, §4

Echinochloa crus-galli [14] = assay: Post-emergence herbicidal effect; settings: 320 g/ha, assessed visually after about 3 weeks vs untreated controls
Excerpt: as §1

SMILES	post-emergence efficacy VERPE (Veronica persica [1])	post-emergence efficacy VIOTR (Viola tricolor [2]; 80 g/ha)	post-emergence efficacy VIOTR (Viola tricolor [2]; 320 g/ha)	post-emergence efficacy ABUTH (Abutilon theophrasti; 320 g/ha)	post-emergence efficacy SETVI (Setaria viridis [3]; 320 g/ha)	VERPE pre-emergence efficacy (herbicidal activity) (Veronica persica [4]; Dosage 80 g/ha)	VERPE pre-emergence efficacy (herbicidal activity) (Veronica persica [4]; Dosage 320 g/ha)	VIOTR pre-emergence efficacy (herbicidal activity) (Viola tricolor [5]; Dosage 80 g/ha)	VIOTR pre-emergence efficacy (herbicidal activity) (Viola tricolor [5]; Dosage 320 g/ha)	POLCO pre-emergence efficacy (herbicidal activity) (Polygonum convolvulus; Dosage 320 g/ha)	LOLMU pre-emergence efficacy (herbicidal activity) (Lolium multiflorum)	STEME pre-emergence efficacy (herbicidal activity) (Stellaria media [6]; Dosage 80 g/ha)	STEME pre-emergence efficacy (herbicidal activity) (Stellaria media [6]; Dosage 320 g/ha)	MATIN pre-emergence efficacy (herbicidal activity) (Matricaria inodora [7]; Dosage 80 g/ha)	MATIN pre-emergence efficacy (herbicidal activity) (Matricaria inodora [7]; Dosage 320 g/ha)	SETVI pre-emergence efficacy (herbicidal activity) (Setaria viridis [8]; Dosage 320 g/ha)	AMARE pre-emergence efficacy (herbicidal activity) (Amaranthus retroflexus [9]; Dosage 320 g/ha)	SETVI pre-emergence efficacy (herbicidal activity) (Setaria viridis [8]; Dosage 80 g/ha)	post-emergence efficacy STEME (Stellaria media [12]; 80 g/ha)	post-emergence efficacy STEME (Stellaria media [12]; 320 g/ha)	further results
CN=C(C)c1cnc(NC2CCCc3sc(C)cc32)nc1N (stereo not shown) [compound 352]	100%	80%	90%	90%	80%	100%	100%	80%	100%	60%	60%	100%	100%	90%	90%	100%	100%				post-emergence efficacy ABUTH (Abutilon theophrasti; 80 g/ha): 80%; POLCO pre-emergence efficacy (herbicidal activity) (Polygonum convolvulus; Dosage 80 g/ha): 60%
Cc1cc2c(s1)CCCC2Nc1ncc(-c2ccccc2)c(N)n1 (racemic) [compound 296]	90%	70%	80%	70%	70%	100%	100%	60%	100%				90%	90%	100%	100%		70%			post-emergence efficacy MATIN (Matricaria inodora [10]): 60%; post-emergence efficacy SETVI (Setaria viridis [3]; 80 g/ha): 40%; post-emergence efficacy AMARE (Amaranthus retroflexus [11]; 80 g/ha): 60%; post-emergence efficacy AMARE (Amaranthus retroflexus [11]; 320 g/ha): 90%
CCOC(=O)c1cnc(NC2CCCc3sc(C)cc32)nc1N (racemic) [compound 293]	90%	70%	90%				100%		100%		60%	100%	100%	70%	100%	100%	100%		80%	100%	post-emergence efficacy PHBPU (Ipomoea purpurea; 80 g/ha): 80%; post-emergence efficacy PHBPU (Ipomoea purpurea; 320 g/ha): 90%; ECHCG pre-emergence efficacy (herbicidal activity) (Echinochloa crus-galli [13]): 80%; ALOMY pre-emergence efficacy (herbicidal activity) (Alopecurus myosuroides; Dosage 320 g/ha): 70%
Nc1nc(NC2CCCc3sccc32)ncc1C(F)(F)F (racemic) [compound 70]			100%			90%	100%	100%	100%	100%	100%	100%	100%	100%	100%	100%	100%	100%	100%	100%	post-emergence efficacy ECHCG (Echinochloa crus-galli [14]): 80%; post-emergence efficacy AMARE (Amaranthus retroflexus [11]; 80 g/ha): 40%; post-emergence efficacy AMARE (Amaranthus retroflexus [11]; 320 g/ha): 100%; ECHCG pre-emergence efficacy (herbicidal activity) (Echinochloa crus-galli [13]): 100%; AMARE pre-emergence efficacy (herbicidal activity) (Amaranthus retroflexus [9]; Dosage 80 g/ha): 100%
C=C(c1cnc(NC2CCCc3sc(C)cc32)nc1N)C(F)(F)F (racemic) [compound 275]	90%	70%	90%	90%	80%	100%	100%	100%	100%	70%	60%	100%	100%	90%	100%	100%	100%	90%	90%	90%	post-emergence efficacy PHBPU (Ipomoea purpurea; 320 g/ha): 70%; post-emergence efficacy ABUTH (Abutilon theophrasti; 80 g/ha): 80%; post-emergence efficacy SETVI (Setaria viridis [3]; 80 g/ha): 70%; ECHCG pre-emergence efficacy (herbicidal activity) (Echinochloa crus-galli [13]): 100%; ALOMY pre-emergence efficacy (herbicidal activity) (Alopecurus myosuroides; Dosage 80 g/ha): 80%; ALOMY pre-emergence efficacy (herbicidal activity) (Alopecurus myosuroides; Dosage 320 g/ha): 80%; AMARE pre-emergence efficacy (herbicidal activity) (Amaranthus retroflexus [9]; Dosage 80 g/ha): 70%
